Where two headings read alike, the source gives them in different places.

For experiment [1], the target named is T1, EGFR (L858R T790M C797S) (Homo sapiens, UniProt P00533, C797S/L858R/T790M).
T1 construct: purchased SignalChem E10-122VG
Description: Biochemical EGFR inhibition assay (Caliper mobility shift), EGFR LRTMCS mutant. To be noted: inhibitory activity against EGFR LRTMCS mutant; apparent IC50; read-out: Ext Enz LRTMCS. The procedure, abridged: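 Caliper mobility shift read-out: product and substrate peptides separated by electrophoresis and quantified. Reactions at 25° C. taken to 10–20% peptide phosphorylation, quenched with 35 mM EDTA. Apparent IC50 from percent activity vs log [compound].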

The subject of experiment [2] is phosphorylation of EGFR (Tyr1068) in NCI-H1975 cell line that harbors the EGFR L858R T790M mutations. Kind of experiment: NCI-H1975 pEGFR AlphaLISA assay. Format: cell-based. As to conditions: 4-5 hours incubation, read-out: Ext pEGFR H1975. The procedure, abridged:
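Phospho-EGFR Tyr1068 AlphaLISA readout: lysates taken from compound-treated H1975 cells (L858R T790M EGFR) after a 4-5 h exposure at 37 °C. Cells had adhered overnight beforehand. IC50 derived by plotting % pEGFR inhibition against log compound concentration.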
In general terms: Alpha assays give light when donor and acceptor beads are brought close together.

Setting [3] is: Homo sapiens, NCI-H1975, inhibition of phosphorylation of mutant EGFR in NCI-H1975 cells.

T1 sequence (P00533 25-1210 T790M/C797S/L858R): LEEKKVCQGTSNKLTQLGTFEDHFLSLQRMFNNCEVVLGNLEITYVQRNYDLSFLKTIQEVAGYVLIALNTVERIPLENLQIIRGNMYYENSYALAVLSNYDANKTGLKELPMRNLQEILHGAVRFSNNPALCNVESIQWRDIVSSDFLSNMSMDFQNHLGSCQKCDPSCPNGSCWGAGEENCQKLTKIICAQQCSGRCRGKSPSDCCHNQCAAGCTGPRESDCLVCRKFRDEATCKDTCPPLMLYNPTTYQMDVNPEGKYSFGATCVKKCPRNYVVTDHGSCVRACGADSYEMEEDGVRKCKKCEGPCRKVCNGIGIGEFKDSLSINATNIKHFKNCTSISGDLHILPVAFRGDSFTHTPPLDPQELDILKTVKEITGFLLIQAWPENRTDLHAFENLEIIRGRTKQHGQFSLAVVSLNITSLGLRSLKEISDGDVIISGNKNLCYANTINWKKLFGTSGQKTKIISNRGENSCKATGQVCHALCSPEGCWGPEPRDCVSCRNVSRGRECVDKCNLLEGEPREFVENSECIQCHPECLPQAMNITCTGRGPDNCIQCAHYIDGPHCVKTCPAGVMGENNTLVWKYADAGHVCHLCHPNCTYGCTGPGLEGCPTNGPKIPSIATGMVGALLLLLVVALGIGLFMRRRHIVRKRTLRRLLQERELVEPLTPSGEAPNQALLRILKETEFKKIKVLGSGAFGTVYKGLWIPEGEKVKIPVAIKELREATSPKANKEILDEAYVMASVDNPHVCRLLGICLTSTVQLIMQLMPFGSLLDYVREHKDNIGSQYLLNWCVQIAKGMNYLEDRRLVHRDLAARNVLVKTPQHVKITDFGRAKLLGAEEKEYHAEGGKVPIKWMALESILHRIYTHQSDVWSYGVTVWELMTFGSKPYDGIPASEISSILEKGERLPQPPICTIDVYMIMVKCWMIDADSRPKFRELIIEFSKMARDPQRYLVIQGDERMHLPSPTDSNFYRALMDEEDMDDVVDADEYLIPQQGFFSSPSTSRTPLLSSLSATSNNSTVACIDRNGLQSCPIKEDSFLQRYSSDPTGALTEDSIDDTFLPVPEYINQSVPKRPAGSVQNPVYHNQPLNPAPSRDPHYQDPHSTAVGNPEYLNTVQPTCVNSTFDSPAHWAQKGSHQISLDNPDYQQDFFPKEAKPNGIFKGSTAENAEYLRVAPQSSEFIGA

Regarding `CO[C@@H]1CCN(c2nccc(Nc3cc4c(C(C)C)ncc(N5C[C@H](CS(C)(=O)=O)[C@H]5C)c4cn3)n2)C[C@@H]1F` [Compound 139, N-{2-[(3S,4R)-3-fluoro-4-methoxypiperidin-1-yl]pyrimidin-4-yl}-8-[(2R,3S)-3-(methanesulfonylmethyl)-2-methylazetidin-1-yl]-5-(propan-2-yl)-2,6-naphthyridin-3-amine], the IC50 is not above 0.015 µM in experiment [1] and not above 0.01 µM in experiment [2] (setting [3]).
For the compound `CO[C@@H]1CCN(c2nccc(Nc3cc4c(C(C)C)ncc(N5C[C@H](CS(C)(=O)=O)[C@H]5C)c4cn3)n2)C[C@@H]1O` (single isomer, unassigned) [Compound 103, (3S,4R)-1-(4-(5-isopropyl-8-((2R,3S)-2-methyl-3-(methylsulfonylmethyl)azetidin-1-yl)-2,6-naphthyridin-3-ylamino)pyrimidin-2-yl)-4-methoxypiperidin-3-ol or (3R,4S)-1-(4-(5-isopropyl-8-((2R,3S)-2-methyl-3-(methylsulfonylmethyl)azetidin-1-yl)-2,6-naphthyridin-3-ylamino)pyrimidin-2-yl)-4-methoxypiperidin-3-ol], the results for the IC50 in experiment [1] and in experiment [2] (setting [3]) were not above 0.015 µM and 0.0101 to 0.02 µM, respectively.
In the same order, the values of `CO[C@@H]1CCN(c2nccc(Nc3cc4c(C(C)C)cnc(N5CC(CS(C)(=O)=O)C5)c4cn3)n2)C[C@@H]1F` [Compound 72, N-{2-[(3S,4R)-3-fluoro-4-methoxypiperidin-1-yl]pyrimidin-4-yl}-8-[3-(methanesulfonylmethyl)azetidin-1-yl]-5-(propan-2-yl)-2,7-naphthyridin-3-amine] are not above 0.015 µM and not above 0.01 µM.
As for `CC(C)c1cnc(N2CC(CS(=O)(=O)C(F)F)C2)c2cnc(Nc3ccnc(N4CC[C@@H](O)[C@@](C)(F)C4)n3)cc12` (single isomer, unassigned) [Compound 220], the IC50 in experiment [1] is not above 0.015 µM; in experiment [2] (setting [3]) it was not above 0.01 µM.
In the same order, the values of `CO[C@@H]1CCN(c2nccc(Nc3cc4c(C(C)C)ccc(N5CC(CS(C)(=O)=O)C5)c4cn3)n2)C[C@@H]1O` (single isomer, unassigned) [Compound 52, (3S,4R)-1-(4-(5-isopropyl-8-(3-(methylsulfonylmethyl)azetidin-1-yl)isoquinolin-3-ylamino)pyrimidin-2-yl)-4-methoxypiperidin-3-ol or (3R,4S)-1-(4-(5-isopropyl-8-(3-(methylsulfonylmethyl)azetidin-1-yl)isoquinolin-3-ylamino)pyrimidin-2-yl)-4-methoxypiperidin-3-ol] are not above 0.015 µM and not above 0.01 µM.
As for `CC(C)c1ccc(N2CC(CS(C)(=O)=O)C2)c2cnc(Nc3ccnc(N4CCC5(OCCO5)[C@H](F)C4)n3)cc12` (single isomer, unassigned) [Compound 180, N-{2-[(6R)-6-fluoro-1,4-dioxa-8-azaspiro[4.5]decan-8-yl]pyrimidin-4-yl}-8-[3-(methanesulfonylmethyl)azetidin-1-yl]-5-(propan-2-yl)isoquinolin-3-amine or N-{2-[(6S)-6-fluoro-1,4-dioxa-8-azaspiro[4.5]decan-8-yl]pyrimidin-4-yl}-8-[3-(methanesulfonylmethyl)azetidin-1-yl]-5-(propan-2-yl)isoquinolin-3-amine], the IC50 in experiment [1] was not above 0.015 µM; in experiment [2] (setting [3]), 0.0101 to 0.02 µM.
For the compound `CC(C)c1ccc(N2C[C@H](CS(C)(=O)=O)[C@H]2C)c2cnc(Nc3ccnc(N4CC[C@@H](OCCN(C)C)[C@@H](F)C4)n3)cc12` [Compound 254, N-{2-[(3S,4R)-4-[2-(dimethylamino)ethoxy]-3-fluoropiperidin-1-yl]pyrimidin-4-yl}-8-[(2R,3S)-3-(methanesulfonylmethyl)-2-methylazetidin-1-yl]-5-(propan-2-yl)isoquinolin-3-amine], the IC50 in experiment [1] was not above 0.015 µM; in experiment [2] (setting [3]), not above 0.01 µM.
In the same order, the values of `CC(C)c1cnc(N2CC(CS(=O)(=O)C(C)C)C2)c2cnc(Nc3ccnc(N4CC[C@@H](O)[C@@](C)(F)C4)n3)cc12` (single isomer, unassigned) [Compound 188] are not above 0.015 µM and not above 0.01 µM.
As to `CCS(=O)(=O)CC1CN(c2ccc(C(C)C)c3cc(Nc4ccnc(N5CC[C@H](OC)[C@H](F)C5)n4)ncc23)C1` [Compound 262, 8-{3-[(ethanesulfonyl)methyl]azetidin-1-yl}-N-{2-[(3R,4S)-3-fluoro-4-methoxypiperidin-1-yl]pyrimidin-4-yl}-5-(propan-2-yl)isoquinolin-3-amine], the IC50 was not above 0.015 µM in experiment [1] and not above 0.01 µM in experiment [2] (setting [3]).
As to `COC1CCN(c2nccc(Nc3cc4c(C(C)C)cnc(N5CC(CS(C)(=O)=O)C5)c4cn3)n2)CC1` [Compound 22, 8-[3-(methanesulfonylmethyl)azetidin-1-yl]-N-[2-(4-methoxypiperidin-1-yl)pyrimidin-4-yl]-5-(propan-2-yl)-2,7-naphthyridin-3-amine], the IC50 in experiment [1] was not above 0.015 µM; in experiment [2] (setting [3]) it was not above 0.01 µM.
For the compound `COCCO[C@H]1CCN(c2nccc(Nc3cc4c(C(C)C)ccc(N5C[C@H](CS(C)(=O)=O)[C@H]5C)c4cn3)n2)C[C@H]1F` (single isomer, unassigned) [Compound 246], the values for the IC50 in experiment [1] and in experiment [2] (setting [3]) were not above 0.015 µM and not above 0.01 µM, respectively.
Take `CC(C)c1ccc(N2C[C@H](CS(C)(=O)=O)[C@H]2C)c2cnc(Nc3ccnc(N4CC[C@@H](OCCN(C)C)C(F)(F)C4)n3)cc12` (single isomer, unassigned) [Compound 304, N-{2-[(4R)-4-[2-(dimethylamino)ethoxy]-3,3-difluoropiperidin-1-yl]pyrimidin-4-yl}-8-[(2R,3S)-3-(methanesulfonylmethyl)-2-methylazetidin-1-yl]-5-(propan-2-yl)isoquinolin-3-amine or N-{2-[(4S)-4-[2-(dimethylamino)ethoxy]-3,3-difluoropiperidin-1-yl]pyrimidin-4-yl}-8-[(2R,3S)-3-(methanesulfonylmethyl)-2-methylazetidin-1-yl]-5-(propan-2-yl)isoquinolin-3-amine]: the IC50 in experiment [1] was not above 0.015 µM; in experiment [2] (setting [3]) it was not above 0.01 µM.
As to `CC(C)c1ccc(N2CC(CS(C)(=O)=O)C2)c2cnc(Nc3ccnc(N4C[C@@H](F)[C@@H](O)[C@@](C)(F)C4)n3)cc12` (single isomer, unassigned) [Compound 155, (3S,4R,5R)-3,5-difluoro-1-[4-({8-[3-(methanesulfonylmethyl)azetidin-1-yl]-5-(propan-2-yl)isoquinolin-3-yl}amino)pyrimidin-2-yl]-3-methylpiperidin-4-ol or (3R,4S,5S)-3,5-difluoro-1-[4-({8-[3-(methanesulfonylmethyl)azetidin-1-yl]-5-(propan-2-yl)isoquinolin-3-yl}amino)pyrimidin-2-yl]-3-methylpiperidin-4-ol], the IC50 was not above 0.015 µM in experiment [1] and not above 0.01 µM in experiment [2] (setting [3]).
In the same order, the values of `CC(C)c1cnc(N2C[C@H](CS(C)(=O)=O)[C@H]2C)c2cnc(Nc3ccnc(N4CC[C@@H](OCC(C)(C)O)[C@@H](F)C4)n3)cc12` [Compound 260, 1-{[(3S,4R)-3-fluoro-1-[4-({8-[(2R,3S)-3-(methanesulfonylmethyl)-2-methylazetidin-1-yl]-5-(propan-2-yl)-2,7-naphthyridin-3-yl}amino)pyrimidin-2-yl]piperidin-4-yl]oxy}-2-methylpropan-2-ol] are not above 0.015 µM and not above 0.01 µM.
Consider `[2H]C([2H])([2H])O[C@H]1CCN(c2nccc(Nc3cc4c(C(C)C)ccc(N5CC(CS(C)(=O)=O)C5)c4cn3)n2)CC1(F)F` (single isomer, unassigned) [Compound 287, N-{2-[(4R)-3,3-difluoro-4-(^2H3)methoxypiperidin-1-yl]pyrimidin-4-yl}-8-[3-(methanesulfonylmethyl)azetidin-1-yl]-5-(propan-2-yl)isoquinolin-3-amine or N-{2-[(4S)-3,3-difluoro-4-(^2H3)methoxypiperidin-1-yl]pyrimidin-4-yl}-8-[3-(methanesulfonylmethyl)azetidin-1-yl]-5-(propan-2-yl)isoquinolin-3-amine], for which the figures for the IC50 in experiment [1] and in experiment [2] (inhibition of phosphorylation of mutant EGFR in NCI-H1975 cells) were 0.0201 to 0.03 µM and 0.0101 to 0.02 µM, respectively.
In the case of `C[C@@H]1[C@@H](CS(C)(=O)=O)CN1c1ccc(C(F)(F)F)c2cc(Nc3ccnc(N4CC[C@@H](O)[C@@](C)(F)C4)n3)ncc12` (single isomer, unassigned) [Compound 222], the IC50 in experiment [1] is not above 0.015 µM; in experiment [2] (setting [3]), not above 0.01 µM.
On to `CC(C)c1ncc(N2C[C@H](CS(C)(=O)=O)[C@H]2C)c2cnc(Nc3ccnc(N4CC[C@@H](O)[C@@](C)(F)C4)n3)cc12` (single isomer, unassigned) [Compound 129], for which the IC50 in experiment [1] is not above 0.015 µM; in experiment [2] (setting [3]), not above 0.01 µM.
The matching figures for `C[C@@H]1[C@@H](CS(C)(=O)=O)CN1c1cccc2cc(Nc3ccnc(N4C[C@H](F)[C@H](O)C(C)(C)C4)n3)ncc12` (single isomer, unassigned) [Compound 30, (4S,5R)-5-fluoro-1-[4-({8-[(2R,3S)-3-(methanesulfonylmethyl)-2-methylazetidin-1-yl]isoquinolin-3-yl}amino)pyrimidin-2-yl]-3,3-dimethylpiperidin-4-ol or (4R,5S)-5-fluoro-1-[4-({8-[(2R,3S)-3-(methanesulfonylmethyl)-2-methylazetidin-1-yl]isoquinolin-3-yl}amino)pyrimidin-2-yl]-3,3-dimethylpiperidin-4-ol]: not above 0.015 µM and not above 0.01 µM.
With `CC(C)c1ncc(N2C[C@H](CS(C)(=O)=O)[C@H]2C)c2cnc(Nc3ccnc(N4CC[C@@H](OC5CC5)[C@@H](F)C4)n3)cc12` [Compound 225], the IC50 in experiment [1] was not above 0.015 µM; in experiment [2] (setting [3]), not above 0.01 µM.

These data come from patent US12172983B2, “EGFR inhibitors” (Blueprint Medicines Corporation, priority 2019, dated 2024).
